Laboratory results published in US20140128352A1, “COMPOUNDS AND METHODS FOR MODULATING MITOCHONDRIAL METABOLISM AND REACTIVE OXYGEN SPECIES PRODUCTION” (Buck Institute for Research on Aging, priority 2012, published 2014).
Read-outs that look alike come from different tables or passages of the source.

Key:
[1] = system: ubiquinone binding site of complex I (IQ); assay: High-throughput screen: ROS production from ubiquinone binding site of complex I (IQ), isolated skeletal muscle mitochondria; type: biochemical, rat; settings: percent change in ROS from DMSO controls
[2] = target: T1, flavin binding site of complex I (IF) (Rattus norvegicus, UniProt Q5XIH3); assay: High-throughput screen: ROS production from flavin binding site of complex I (IF); type: biochemical
T1 construct: freshly isolated muscle mitochondria were assayed; from tissue; host or cells: rat skeletal muscle mitochondria (Wistar, Harlan Laboratories)

[3] = target: T2, outer ubiquinone binding site of complex III (IIIQO) (Rattus norvegicus, UniProt P00159+P20788); assay: High-throughput screen: ROS production from outer ubiquinone binding site of complex III (IIIQO); type: biochemical; settings: percent change in ROS from DMSO controls; for IIIQO: Table 8
T2 construct: freshly isolated muscle mitochondria were assayed; from tissue; host or cells: rat skeletal muscle mitochondria (Wistar, Harlan Laboratories)

[4] = target: T3, succinate dehydrogenase/complex II (SDH) (Rattus norvegicus, UniProt P21913+Q641Z9+Q6PCT8+Q920L2); assay: High-throughput screen: ROS production from succinate dehydrogenase/complex II (SDH); type: biochemical; settings: percent change in ROS from DMSO controls; for inhibition at 2.5 µM: Table 7
T3 construct: freshly isolated muscle mitochondria were assayed; from tissue; host or cells: rat skeletal muscle mitochondria (Wistar, Harlan Laboratories)
Experimental: Skeletal muscle mitochondria were isolated from 5-8 week old female Wistar rats (Harlan Laboratories). Minced muscle was homogenized in buffer containing bacterial protease Type VIII prior to differential centrifugation to separate mitochondria from other tissue components. Unless otherwise stated, freshly isolated muscle mitochondria were assayed in buffer containing 120 mM KCl, 5 mM HEPES, 1 mM EGTA, 0.3% (w/v) bovine serum albumin. Where indicated, CaCl2 was added to yield a final free concentration of 250 nM calcium at pH 7.0 at 37° C.
Just prior to use, plates were brought to room temperature and diluted 300-fold with standard buffer (13.3X=33.3 μM). To monitor the performance of each assay throughout screening and to provide intra-plate normalization reference points, DMSO negative controls and known mitochondrial inhibitor positive controls were included on each Master compound plate.
Total amounts of superoxide and H2O2 production were determined fluorometrically as H2O2, without distinguishing between them, in the presence of exogenous superoxide dismutase (25 units/mL final), horseradish peroxidase (1 unit/mL final), and Amplex UltraRed (25 μM final) as described (Affourtit, C. et al. (2012) Measurement of proton leak and electron leak in isolated mitochondria. Methods Mol. Biol. 810: 165-82). Just prior to use, a bulk 3.3X solution was made in standard buffer and distributed into a 2 mL deep well 96-well transfer plate.
To assess the effects of a compound on ROS production from succinate dehydrogenase/complex II (SDH), Start Solution containing 15 μM palmitoyl carnitine, 2.5 μM antimycin A and 2 μM myxothiazol was distributed into standard 96-well transfer plates. A Biomek FX workstation was programmed to dispense solutions into black 96-well assay plates. Solutions were dispensed to all assay plates in the following order: ROS Detection solution described in Example 3, Mitochondria solution described in Example 1 to a final concentration of 0.3 mg/ml, and Compound dilutions described in Example 2. Duplicate assay plates were made and each was initiated by the addition of 3.3X Start solution containing 15 μM palmitoyl carnitine, 2.5 μM antimycin A and 2 μM myxothiazol. Plates were incubated in the dark at room temperature for 30-40 minutes before acquiring endpoint fluorescence using a Victor 3V plate reader (Perkin Elmer) equipped with 550/590 nm excitation/emission filters.
The fluorescence values in each well were scaled as the percent change from the intra-plate DMSO controls with the appropriate inhibitor positive controls defined as −100%. Following initial scaling, intra-plate normalized values were subjected to Tukey's two-way median polish to remove row and column dependent positional effects (Malo et al., 2006).

[5] = target: T4, glycerol-3-phosphate dehydrogenase (GPDH) (Rattus norvegicus, UniProt P35571); assay: High-throughput screen: ROS production from glycerol-3-phosphate dehydrogenase (GPDH); type: biochemical; set-up: inhibition: dose or concentration left out as unconfirmed; settings: percent change in ROS from DMSO controls; for inhibition: Table 7
T4 construct: The activity of GPDH in intact mitochondria (0.3 mg/mL) was measured; from tissue; host or cells: rat skeletal muscle mitochondria (Wistar, Harlan Laboratories)
T4 sequence (P35571 43-727): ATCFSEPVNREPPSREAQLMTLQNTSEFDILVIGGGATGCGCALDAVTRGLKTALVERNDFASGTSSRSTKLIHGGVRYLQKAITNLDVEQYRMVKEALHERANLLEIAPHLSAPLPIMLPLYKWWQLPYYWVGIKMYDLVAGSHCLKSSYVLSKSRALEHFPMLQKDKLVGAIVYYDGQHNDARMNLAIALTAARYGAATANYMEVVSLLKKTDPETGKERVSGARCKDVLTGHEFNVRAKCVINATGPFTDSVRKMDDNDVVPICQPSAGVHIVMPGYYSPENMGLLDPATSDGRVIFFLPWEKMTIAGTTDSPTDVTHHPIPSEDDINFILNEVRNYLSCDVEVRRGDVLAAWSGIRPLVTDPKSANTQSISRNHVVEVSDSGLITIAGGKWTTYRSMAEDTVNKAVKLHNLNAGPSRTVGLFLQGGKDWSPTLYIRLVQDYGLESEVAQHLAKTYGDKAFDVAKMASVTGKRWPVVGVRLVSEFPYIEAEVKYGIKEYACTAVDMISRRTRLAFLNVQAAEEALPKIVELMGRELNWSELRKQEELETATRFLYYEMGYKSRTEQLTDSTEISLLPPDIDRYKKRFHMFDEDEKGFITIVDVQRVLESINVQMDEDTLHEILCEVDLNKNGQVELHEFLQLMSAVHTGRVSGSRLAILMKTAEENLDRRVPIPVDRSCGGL

[6] = system: mitochondrial membrane potential (ΔΨm); assay: Membrane potential (ΔΨm) counterscreen with TMRM; settings: malate, nigericin
[7] = Table 3, 5 mM glutamate, 5 mM malate, 4 μM rotenone, compounds 2.5 μM, percent change from DMSO, positive control −100%, read-out: % Reduction in ROS production (IF)
[8] = Table 7, percent change in ROS from DMSO controls, read-out: IF
[9] = Table 8, percent change in ROS from DMSO controls
[10] = Table 9, percent change in ROS from DMSO controls

T3 sequence (Q920L2 35-656): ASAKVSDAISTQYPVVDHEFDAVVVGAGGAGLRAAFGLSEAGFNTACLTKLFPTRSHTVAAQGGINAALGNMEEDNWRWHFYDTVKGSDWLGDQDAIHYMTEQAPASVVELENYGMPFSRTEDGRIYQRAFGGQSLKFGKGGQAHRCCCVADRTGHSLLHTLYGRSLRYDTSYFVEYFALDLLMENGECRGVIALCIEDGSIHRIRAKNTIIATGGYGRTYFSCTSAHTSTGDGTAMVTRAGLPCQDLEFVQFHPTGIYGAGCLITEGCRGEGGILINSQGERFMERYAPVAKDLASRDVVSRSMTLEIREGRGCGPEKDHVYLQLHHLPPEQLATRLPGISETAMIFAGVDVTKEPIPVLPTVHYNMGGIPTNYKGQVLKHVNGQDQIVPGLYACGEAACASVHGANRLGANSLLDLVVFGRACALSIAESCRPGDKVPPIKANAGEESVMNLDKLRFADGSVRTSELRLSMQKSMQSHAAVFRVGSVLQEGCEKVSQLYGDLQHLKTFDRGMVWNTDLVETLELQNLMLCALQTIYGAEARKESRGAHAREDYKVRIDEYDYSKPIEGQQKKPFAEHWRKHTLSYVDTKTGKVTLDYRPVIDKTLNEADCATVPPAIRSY
T3 sequence (P21913 31-282): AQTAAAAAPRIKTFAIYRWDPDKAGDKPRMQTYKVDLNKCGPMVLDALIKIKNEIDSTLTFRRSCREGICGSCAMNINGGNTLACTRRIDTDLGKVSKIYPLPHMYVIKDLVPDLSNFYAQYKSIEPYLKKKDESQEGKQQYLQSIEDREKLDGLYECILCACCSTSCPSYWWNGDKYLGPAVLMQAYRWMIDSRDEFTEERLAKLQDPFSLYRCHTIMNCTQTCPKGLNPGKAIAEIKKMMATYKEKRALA
T3 sequence (Q641Z9 30-169 limits assumed): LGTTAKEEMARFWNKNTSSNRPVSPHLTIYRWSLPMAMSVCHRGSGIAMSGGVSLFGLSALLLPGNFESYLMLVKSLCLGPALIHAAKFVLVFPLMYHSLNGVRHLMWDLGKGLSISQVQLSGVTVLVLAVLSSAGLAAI
T3 sequence (Q6PCT8 57-159): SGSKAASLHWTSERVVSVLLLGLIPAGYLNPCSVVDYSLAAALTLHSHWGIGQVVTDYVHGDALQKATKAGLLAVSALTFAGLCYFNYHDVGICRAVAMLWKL
T1 sequence (Q5XIH3 21-464 limits assumed, one chain of several): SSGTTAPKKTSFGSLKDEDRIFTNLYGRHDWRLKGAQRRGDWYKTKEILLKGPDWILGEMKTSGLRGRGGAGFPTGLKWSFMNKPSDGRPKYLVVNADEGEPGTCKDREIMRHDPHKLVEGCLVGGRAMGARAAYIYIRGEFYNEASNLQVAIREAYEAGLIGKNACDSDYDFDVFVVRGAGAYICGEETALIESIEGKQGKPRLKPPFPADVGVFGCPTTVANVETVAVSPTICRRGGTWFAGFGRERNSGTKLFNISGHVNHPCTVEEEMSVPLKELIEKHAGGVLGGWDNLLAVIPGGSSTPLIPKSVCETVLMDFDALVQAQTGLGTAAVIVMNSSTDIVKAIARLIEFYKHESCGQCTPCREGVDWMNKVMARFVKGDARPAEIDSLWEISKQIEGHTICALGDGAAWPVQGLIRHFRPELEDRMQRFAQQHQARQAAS

## O=C(Nc1ccccc1F)[C@@H]1C2C=CC(C2)[C@@H]1C(=O)O (stereo partly drawn) [Compound 20]
[1]; Table 7
  IQ: 0.2
[1]; Table 8
  IQ: 0.2
[1]; Table 9
  IQ: 0.2
[2]; [7]
  inhibition at 2.5 µM: 24%
[2]; [8]
  inhibition at 2.5 µM: 24%
[2]; [9]
  IF: −24.0
[2]; [10]
  IF: −24.0
[3]; Table 7, read-out: IIIQO
  inhibition at 2.5 µM: -1.2%
[3]
  IIIQO: 1.2
[3]; Table 9, read-out: IIIQo
  inhibition at 2.5 µM: -1.2%
[4]
  inhibition at 2.5 µM: 0.7%
[4]; Table 8
  SDH: −0.7
[4]; Table 9
  SDH: −0.7
[5]
  inhibition: 1.7%
[5]; Table 8
  GPDH: −1.7
[5]; Table 9
  GPDH: −1.7
[6]; Table 8, glutamate
  ΔΨm: −0.3
[6]; Table 9, glutamate
  ΔΨm: −0.3

## Cc1ccc(C(C)C)c(OCC(O)CN2CCN(Cc3ccccc3)CC2)c1.Cl.Cl (stereo not drawn) [Compound 21]
[1]; Table 7
  IQ: 0.0
[1]; Table 8
  IQ: 0.0
[1]; Table 9
  IQ: 0.0
[2]; [7]
  inhibition at 2.5 µM: 23%
[2]; [8]
  inhibition at 2.5 µM: 23%
[2]; [9]
  IF: −23.0
[2]; [10]
  IF: −23.0
[3]; Table 7, read-out: IIIQO
  inhibition at 2.5 µM: 9.9%
[3]
  IIIQO: −9.9
[3]; Table 9, read-out: IIIQo
  inhibition at 2.5 µM: 9.9%
[4]
  inhibition at 2.5 µM: -1.7%
[4]; Table 8
  SDH: 1.7
[4]; Table 9
  SDH: 1.7
[5]
  inhibition: 1.8%
[5]; Table 8
  GPDH: −1.8
[5]; Table 9
  GPDH: −1.8
[6]; Table 8, glutamate
  ΔΨm: −0.3
[6]; Table 9, glutamate
  ΔΨm: −0.3

## CCN1CCN(C2CCC(C(C)(C)C)CC2)CC1 (stereo not drawn) [Compound 22]
[1]; Table 7
  IQ: −0.4
[1]; Table 8
  IQ: −0.4
[1]; Table 9
  IQ: −0.4
[2]; [7]
  inhibition at 2.5 µM: 22.1%
[2]; [8]
  inhibition at 2.5 µM: 22.1%
[2]; [9]
  IF: −22.1
[2]; [10]
  IF: −22.1
[3]; Table 7, read-out: IIIQO
  inhibition at 2.5 µM: 6.2%
[3]
  IIIQO: −6.2
[3]; Table 9, read-out: IIIQo
  inhibition at 2.5 µM: 6.2%
[4]
  inhibition at 2.5 µM: -5.5%
[4]; Table 8
  SDH: 5.5
[4]; Table 9
  SDH: 5.5
[5]
  inhibition: 2.6%
[5]; Table 8
  GPDH: −2.6
[5]; Table 9
  GPDH: −2.6
[6]; Table 8, glutamate
  ΔΨm: −0.9
[6]; Table 9, glutamate
  ΔΨm: −0.9

## CN(C)CCN(Cc1ccccc1)Cc1ccccc1Br [Compound 23]
[1]; Table 7
  IQ: −2.7
[1]; Table 8
  IQ: −2.7
[1]; Table 9
  IQ: −2.7
[2]; [7]
  inhibition at 2.5 µM: 21.1%
[2]; [8]
  inhibition at 2.5 µM: 21.1%
[2]; [9]
  IF: −21.1
[2]; [10]
  IF: −21.1
[3]; Table 7, read-out: IIIQO
  inhibition at 2.5 µM: 8.8%
[3]
  IIIQO: −8.8
[3]; Table 9, read-out: IIIQo
  inhibition at 2.5 µM: 8.8%
[4]
  inhibition at 2.5 µM: -1.7%
[4]; Table 8
  SDH: 1.7
[4]; Table 9
  SDH: 1.7
[5]
  inhibition: 1%
[5]; Table 8
  GPDH: −1.0
[5]; Table 9
  GPDH: −1.0
[6]; Table 8, glutamate
  ΔΨm: −1.5
[6]; Table 9, glutamate
  ΔΨm: −1.5

## O=C(COc1ccc(Cl)cc1Cl)Nc1ccc(F)cc1F [Compound 24]
[1]; Table 7
  IQ: −1.0
[1]; Table 8
  IQ: −1.0
[1]; Table 9
  IQ: −1.0
[2]; [7]
  inhibition at 2.5 µM: 19.8%
[2]; [8]
  inhibition at 2.5 µM: 19.8%
[2]; [9]
  IF: −19.8
[2]; [10]
  IF: −19.8
[3]; Table 7, read-out: IIIQO
  inhibition at 2.5 µM: 1.3%
[3]
  IIIQO: −1.3
[3]; Table 9, read-out: IIIQo
  inhibition at 2.5 µM: 1.3%
[4]
  inhibition at 2.5 µM: 1.5%
[4]; Table 8
  SDH: −1.5
[4]; Table 9
  SDH: −1.5
[5]
  inhibition: 2%
[5]; Table 8
  GPDH: −2.0
[5]; Table 9
  GPDH: −2.0
[6]; Table 8, glutamate
  ΔΨm: 0.1
[6]; Table 9, glutamate
  ΔΨm: 0.1

## CCN(CC)CCN(CC)Cc1ccc(Cl)cc1Cl [Compound 25]
[1]; Table 7
  IQ: −0.6
[1]; Table 8
  IQ: −0.6
[1]; Table 9
  IQ: −0.6
[2]; [7]
  inhibition at 2.5 µM: 19.7%
[2]; [8]
  inhibition at 2.5 µM: 19.7%
[2]; [9]
  IF: −19.7
[2]; [10]
  IF: −19.7
[3]; Table 7, read-out: IIIQO
  inhibition at 2.5 µM: 3.3%
[3]
  IIIQO: −3.3
[3]; Table 9, read-out: IIIQo
  inhibition at 2.5 µM: 3.3%
[4]
  inhibition at 2.5 µM: 0.1%
[4]; Table 8
  SDH: −0.1
[4]; Table 9
  SDH: −0.1
[5]
  inhibition: 2.5%
[5]; Table 8
  GPDH: −2.5
[5]; Table 9
  GPDH: −2.5
[6]; Table 8, glutamate
  ΔΨm: −0.4
[6]; Table 9, glutamate
  ΔΨm: −0.4
